Patent publication US9359303B2, “Octahydrobenzoisoquinoline modulators of dopamine receptors and uses therefor” (Purdue Research Foundation, priority 2009, dated 2016)

How the values were obtained:
D1 receptor = D1 receptor (Homo sapiens, UniProt P21728); settings: reported; cited from earlier work
D2 receptor = D2 receptor (Homo sapiens, UniProt P14416); settings: reported; cited from earlier work
[1] = rodents and non-human primates; iv, sc, po; cited from earlier work
[2] = pKa used to separate acids by titration; type: physicochemical
Description: 4-(2,3-Dimethoxyphenyl)but-3-enoic acid (5). Recrystallized paraconic acid 4 (8.6 g, 0.032 mol) was placed into a one-neck round bottom flask and the solid was heated in a 180° C. oil bath for 6 h. Carbon dioxide could be observed bubbling out of the dark brown liquid. The reaction was cooled to room temperature and dissolved in CH2Cl2. The product and any unreacted starting material were extracted into 2 N NaOH (3×100 mL). The pKa of the butenoic acid is approximately 4.2, whereas the pKa of the paraconic acid is approximately 3.6, so the two compounds were separated by titration. The basic aqueous extract was carefully acidified with 2 N HCl, with monitoring by a calibrated pH meter. Once the pH reached 4.5, the solution started becoming slightly cloudy. The solution pH was adjusted to 4.0 and the aqueous solution was extracted with CH2Cl2. After extraction the pH of the aqueous layer increased to around 5 and the titration was repeated until there was no cloudiness at pH 4.0. The starting material was recovered by acidifying to pH 3.0 and extracting with CH2Cl2. The initial organic extracts were dried over Na2SO4, and evaporated under reduced pressure to yield pure 5 that solidified under reduced pressure as a yellow solid (4.7 g, 0.021 mol, 65.2%) that was used without further purification; mp 84-86° C. […]

D2-like receptor sites = D2-like receptor sites (Sus scrofa, UniProt A0ACM8QMZ9); test: Competitive binding, porcine striatal tissue, [3H]-spiperone (50 nM ketanserine present); settings: porcine striatal membranes; read-out: Kd for D2-like receptor sites (receptor isotherm)
D2-like receptor sites, sequence (A0ACM8QMZ9 entry or part of it): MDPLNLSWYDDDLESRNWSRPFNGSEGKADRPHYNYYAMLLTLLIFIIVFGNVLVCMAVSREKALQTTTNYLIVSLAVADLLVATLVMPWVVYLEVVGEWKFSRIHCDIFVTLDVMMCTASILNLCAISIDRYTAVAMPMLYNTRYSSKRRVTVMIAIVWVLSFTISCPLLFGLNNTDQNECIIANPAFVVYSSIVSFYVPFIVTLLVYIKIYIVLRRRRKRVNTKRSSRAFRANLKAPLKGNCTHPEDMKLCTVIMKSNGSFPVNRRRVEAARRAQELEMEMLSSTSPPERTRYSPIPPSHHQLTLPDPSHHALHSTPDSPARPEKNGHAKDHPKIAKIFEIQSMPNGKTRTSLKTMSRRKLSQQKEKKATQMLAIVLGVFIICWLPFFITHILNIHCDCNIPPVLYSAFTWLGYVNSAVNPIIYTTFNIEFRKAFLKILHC
Description: Competitive Binding Experiments. Porcine striatal tissue is obtained from the Purdue Butcher Block and prepared as described in the literature. Striatal tissue is homogenized using a potter-type homogenizer, suspended in homogenization buffer (20 mM Hepes, 0.32 M sucrose, pH 7.4), and spun at 1,000 g for 10 minutes at 4° C. The pellet (P1) is discarded and supernatant is centrifuged at 30,000 g for 10 minutes at 4° C. The resultant pellet (P2) is resuspended in 50 mM Tris buffer (pH 7.4) by briefly using a Kinematica homogenizer, and then centrifuged at 30,000 g for 30 minutes at 4° C. This pellet is resuspended again in 50 mM Tris buffer, dispensed into 1 mL aliquots, and centrifuged for 10 min. at 13,000 g at 4° C. A BSA protein assay is used to determine the final weight of the pellets. Supernatant is aspirated and pellets are frozen at −80° C. until use.
Receptor and competitive binding experiments are performed as described in the literature. Pellets are resuspended (1 mL/mg) in receptor binding buffer (50 mM Hepes, 4 mM MgCl2, pH 7.4) and 75 μg protein is used per well. […] All binding experiments are incubated for 30 minutes at 37° C., and are terminated and counted in a similar fashion to the cAMP binding assays.
Data Analysis. […] Ki values are calculated from IC50 using the Cheng-Prusoff equation.

D2 receptor, sequence (P14416 whole entry): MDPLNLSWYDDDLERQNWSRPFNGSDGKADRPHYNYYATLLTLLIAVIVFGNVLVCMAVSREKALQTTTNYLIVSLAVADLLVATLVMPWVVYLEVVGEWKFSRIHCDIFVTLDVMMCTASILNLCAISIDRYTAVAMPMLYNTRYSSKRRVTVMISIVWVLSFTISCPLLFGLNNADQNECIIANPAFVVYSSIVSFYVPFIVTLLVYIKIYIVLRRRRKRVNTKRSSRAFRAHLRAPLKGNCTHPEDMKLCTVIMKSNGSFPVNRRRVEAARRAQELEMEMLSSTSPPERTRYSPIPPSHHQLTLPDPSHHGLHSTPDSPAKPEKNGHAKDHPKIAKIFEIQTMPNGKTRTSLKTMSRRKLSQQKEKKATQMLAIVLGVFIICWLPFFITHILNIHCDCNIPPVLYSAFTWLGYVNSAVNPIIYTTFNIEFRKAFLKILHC
D1 receptor, sequence (P21728 whole entry): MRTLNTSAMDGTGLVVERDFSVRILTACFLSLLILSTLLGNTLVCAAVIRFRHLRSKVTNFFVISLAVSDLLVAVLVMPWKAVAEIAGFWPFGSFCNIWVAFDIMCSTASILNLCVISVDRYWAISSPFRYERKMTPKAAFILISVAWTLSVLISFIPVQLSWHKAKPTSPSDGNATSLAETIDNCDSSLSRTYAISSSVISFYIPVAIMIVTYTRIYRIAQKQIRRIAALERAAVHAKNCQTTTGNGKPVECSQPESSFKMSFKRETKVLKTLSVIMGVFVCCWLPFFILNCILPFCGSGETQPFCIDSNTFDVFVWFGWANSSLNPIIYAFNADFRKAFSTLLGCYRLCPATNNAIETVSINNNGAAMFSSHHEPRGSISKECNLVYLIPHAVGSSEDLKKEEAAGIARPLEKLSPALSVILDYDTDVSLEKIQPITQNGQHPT

Row | Structure (SMILES) | melting point | pKa [2] | other results
1 | Cl.Oc1cc2c(cc1O)[C@@H]1c3ccccc3CN[C@H]1CC2 (racemic) [dihydrexidine, (±)-trans-10,11-dihydroxy-5,6,6a,7,8,12b-hexahydrobenzo[a]phenanthridine hydrochloride] | – | – | affinity for the D1 receptor (D1 receptor): 2.2 nM; affinity for the D2 receptor (D2 receptor): 183 nM; plasma clearance [1]: cleared rapidly from plasma
2 | Br.Oc1ccc2c(c1O)CC[C@H]1CCNC[C@H]21 (relative stereo) [Compound 2, Trans-1,2,3,4,4a,5,6,10b-octahydrobenzo[h]isoquinoline-7,8-diol HBr] | > 250 °C | – | –
3 | Br.Oc1ccc2c(c1O)CC(c1ccccc1)C1CCNCC21 (centres unmarked) [Compound 3, 5-Phenyl-1,2,3,4,4a,5,6,10b-octahydrobenzo[h]isoquinoline-7,8-diol HBr] | > 250 °C | – | –
4 | COc1cccc(C2OC(=O)CC2C(=O)O)c1OC (centres unmarked) [Compound 4, 2-(2,3-Dimethoxyphenyl)-5-oxo-tetrahydrofuran-3-carboxylic acid] | – | ~3.6 | –
5 | COc1cccc(C=CCC(=O)O)c1OC [Compound 5, 4-(2,3-Dimethoxyphenyl)but-3-enoic acid] | – | ~4.2 | –
6 | O=C(CCCN1CCC2(CC1)C(=O)NCN2c1ccccc1)c1ccc(F)cc1 [[3H]-spiperone] | – | – | Kd (D2-like receptor sites): 0.075 nM
